From patent US9822130B2, “Triazolo-pyrazinyl derivatives useful as soluble guanylate cyclase activators” (Merck Sharp & Dohme Corp., priority 2014, dated 2017) come the findings set out here.

Each structure is given as a SMILES string.

This test addresses T1, sGC α1/β1 heterodimer stably expressed in CHO-K1 cell line (CHO-K1/sGC) (Homo sapiens, UniProt Q02108+Q02153).
T1 construct: expressed in transfected cells
T1 sequence (Q02108 1-690): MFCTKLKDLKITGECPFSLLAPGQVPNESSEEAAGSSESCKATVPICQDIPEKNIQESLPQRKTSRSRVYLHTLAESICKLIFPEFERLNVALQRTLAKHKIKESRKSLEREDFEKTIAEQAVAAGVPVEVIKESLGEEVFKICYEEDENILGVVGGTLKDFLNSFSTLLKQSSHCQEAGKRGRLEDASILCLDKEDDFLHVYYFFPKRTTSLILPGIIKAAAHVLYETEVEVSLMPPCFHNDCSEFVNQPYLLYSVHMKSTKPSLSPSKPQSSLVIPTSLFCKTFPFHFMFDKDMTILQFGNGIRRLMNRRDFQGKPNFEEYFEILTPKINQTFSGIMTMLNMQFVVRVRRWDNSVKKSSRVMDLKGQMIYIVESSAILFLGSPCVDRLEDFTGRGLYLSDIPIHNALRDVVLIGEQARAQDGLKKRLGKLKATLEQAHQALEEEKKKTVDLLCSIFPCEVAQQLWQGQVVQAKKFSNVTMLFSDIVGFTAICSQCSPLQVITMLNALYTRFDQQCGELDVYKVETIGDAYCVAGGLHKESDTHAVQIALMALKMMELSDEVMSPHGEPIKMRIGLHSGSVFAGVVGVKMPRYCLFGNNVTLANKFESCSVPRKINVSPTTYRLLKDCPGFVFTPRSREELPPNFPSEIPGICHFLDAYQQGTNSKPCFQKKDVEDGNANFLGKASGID
T1 sequence (Q02153 1-619): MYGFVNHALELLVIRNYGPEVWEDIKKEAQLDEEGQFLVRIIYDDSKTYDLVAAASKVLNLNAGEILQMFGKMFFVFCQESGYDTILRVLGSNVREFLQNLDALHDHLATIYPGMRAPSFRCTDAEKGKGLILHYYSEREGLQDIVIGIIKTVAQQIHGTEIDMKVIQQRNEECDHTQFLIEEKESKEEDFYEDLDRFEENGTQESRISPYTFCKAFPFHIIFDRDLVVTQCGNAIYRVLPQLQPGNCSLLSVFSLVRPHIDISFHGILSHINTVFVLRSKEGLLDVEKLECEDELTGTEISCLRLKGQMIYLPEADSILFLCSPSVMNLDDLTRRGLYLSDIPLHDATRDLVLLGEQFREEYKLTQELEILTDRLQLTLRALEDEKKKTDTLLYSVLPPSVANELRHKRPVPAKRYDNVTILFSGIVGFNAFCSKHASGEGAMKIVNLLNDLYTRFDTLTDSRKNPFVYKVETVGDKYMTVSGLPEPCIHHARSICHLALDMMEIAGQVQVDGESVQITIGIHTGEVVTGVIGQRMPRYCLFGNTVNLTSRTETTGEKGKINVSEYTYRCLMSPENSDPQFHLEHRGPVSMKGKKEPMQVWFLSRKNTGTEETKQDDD
The test can be described thus: Cell-based sGC Functional Assay (CASA Assay), cGMP generation. The following applies: CHO-K1/sGC cells, 1 hr at 37° C., cGMP by HTRF, 4P fit; presence or absence of 1 μM DETA-NO not given; read-out: IP (nM) (inflection point). An excerpt:
sGC is a heme-containing enzyme that converts GTP to secondary messenger cGMP. Increases in cGMP levels affect several physiological processes including vasorelaxation through multiple downstream pathways. […] Heme-dependent activators (HDAs) preferentially activate sGC containing a ferrous heme group. To determine the effect of sGC activators on enzyme activity, the CASA assay was developed to monitor the generation of cGMP in a cell line that stably expresses the heterodimeric sGC protein.
A CHO-K1 cell line stably expressing the sGC α1/β1 heterodimer was generated using a standard transfection protocol. CHO-K1 cells were transfected with plasmids pIREShyghsGCα1 and pIRESneo-hsGCβ1 simultaneously using FUGENE reagent. Clones that stably express both subunits were selected with hygromycin and neomycin for ˜2 weeks. Clone #7 was chosen for the assay and was designated CHO-K1/sGC. CHO-K1/sGC cells were maintained in F-K12 medium containing 10% heat-inactivated Fetal Bovine Serum (FBS), 100 μg/mL penicillin/streptomycin, 0.5 mg/mL hygromycin and 0.25 mg/mL G418. The cells were then cryopreserved in LN2. On the day of the assay, cells thawed and resuspended in EBSS Assay Buffer (Sigma, E3024) supplemented with 5 mM MgCl2, 10 mM HEPES (4-(2-hydroxyethyl)piperazine-1-ethanesulfonic acid) and 0.05% BSA (bovine serum albumin) (EAB) and cell density was then adjusted to 4×10^5/mL with EAB, IBMX (3-isobutyl-1-methylxanthin, 0.5 mM) was added to inhibit degradation of cGMP. Compounds were diluted from DMSO stock solutions and added to the assay at a final DMSO concentration of 2.5%. Cells were incubated with compounds in the presence and absence of 1 μM of Diethylenetriamine/nitric oxide adduct (DETA-NO; Sigma, 17018) for 1 hr at 37° C. At the end of the incubation period, the reaction was terminated and the cells were lysed with the detection reagents from Cisbio Kits. The level of intracellular cGMP was determined using an HTRF-based assay kit (CisBio, 62GM2PEC), which detects the displacement of a fluorescence labeled cGMP from its specific antibody. The cGMP produced by test compounds was directly compared to the maximum cGMP production (this value was set to equal 100% activation.) of the published sGC-HDA Compound A:
[drawing 300] (Example 1 in WO 2010/065275, published Jun. 10, 2010). The test compounds' activities were then expressed as a percentage of Compound A, the standard in every experiment. This percent activation was calculated either in the presence or absence of DETA-NO which was then plotted. IP and maximum fold induction was derived using ADA analysis software for 4P fit.
The compounds in the Examples of the instant invention had inflection points (IP) less than or equal to 10 μM and more particularly less than or equal to about 1 μM.

With `CC1(c2ccc(Cl)cc2)C(=O)Nc2nc(-c3cn4ncnc4c(CCCC(F)(F)F)n3)nc(O)c21` (centres unmarked) [Example 142A, 5-(4-chlorophenyl)-4-hydroxy-5-methyl-2-(8-(4,4,4-trifluorobutyl)-[1,2,4]triazolo[1,5-a]pyrazin-6-yl)-5H-pyrrolo[2,3-d]pyrimidin-6(7H)-one], the EC50 amounted to 207 nM.

`O=C1Nc2nc(-c3cn4ncnc4c(CCCC(F)(F)F)n3)nc(O)c2C1(c1ccc(F)c(F)c1)C1CC1` (centres unmarked) [Example 141A, 5-cyclopropyl-5-(3,4-difluorophenyl)-4-hydroxy-2-(8-(4,4,4-trifluorobutyl)-[1,2,4]triazolo[1,5-a]pyrazin-6-yl)-5H-pyrrolo[2,3-d]pyrimidin-6(7H)-one]: the EC50 came out at 183 nM.

Turning to `Nc1nc(-c2cn3ncnc3c(CCCC(F)(F)F)n2)nc2c1C(c1ccc(F)cn1)(C1CC1)C(=O)N2` (centres unmarked) [Example 34A, 4-amino-5-cyclopropyl-5-(5-fluoropyridin-2-yl)-2-(8-(4,4,4-trifluorobutyl)-[1,2,4]triazolo[1,5-a]pyrazin-6-yl)-5H-pyrrolo[2,3-d]pyrimidin-6(7H)-one], the EC50 was determined as 428 nM.

Regarding `CC1(c2ccccn2)C(=O)Nc2nc(-c3cn4ncnc4c(CCC(F)(F)C(F)(F)F)n3)nc(N)c21` (centres unmarked) [Example 11B, 4-amino-5-methyl-2-(8-(3,3,4,4,4-pentafluorobutyl)-[1,2,4]triazolo[1,5-a]pyrazin-6-yl)-5-(pyridin-2-yl)-5H-pyrrolo[2,3-d]pyrimidin-6(7H)-one], the EC50 is 25.2 nM.

`CC1(c2ccc(C(F)(F)F)cn2)C(=O)Nc2nc(-c3cn4ncnc4c(CCCC(F)(F)F)n3)nc(N)c21` (centres unmarked) [Example 25B, 4-amino-5-methyl-2-(8-(4,4,4-trifluorobutyl)-[1,2,4]triazolo[1,5-a]pyrazin-6-yl)-5-(5-(trifluoromethyl)pyridin-2-yl)-5H-pyrrolo[2,3-d]pyrimidin-6(7H)-one]: the EC50 came to 27 nM.

For the compound `Cc1nc2c(CCC(F)(F)C(F)(F)F)nc(-c3nc(N)c4c(n3)NC(=O)C4(C)c3ccc(Cl)c(F)c3)cn2n1` (centres unmarked) [Example 90B, 4-amino-5-(4-chloro-3-fluorophenyl)-5-methyl-2-(2-methyl-8-(3,3,4,4,4-pentafluorobutyl)-[1,2,4]triazolo[1,5-a]pyrazin-6-yl)-5H-pyrrolo[2,3-d]pyrimidin-6(7H)-one], the EC50 stood at 36.6 nM.

On to `CC1(c2ccc(Cl)cc2)C(=O)Nc2nc(-c3cn4ncnc4cn3)nc(N)c21` (centres unmarked) [Example 94A, 2-([1,2,4]triazolo[1,5-a]pyrazin-6-yl)-4-amino-5-(4-chlorophenyl)-5-methyl-5H-pyrrolo[2,3-d]pyrimidin-6(7H)-one], for which the EC50 came out at 79.4 nM.

For the compound `CC1(c2ccc(Cl)c(F)c2)C(=O)Nc2nc(-c3cn4ncnc4c(CCCC(F)(F)F)n3)nc(N)c21` (centres unmarked) [Example 28B, 4-amino-5-(4-chloro-3-fluorophenyl)-5-methyl-2-(8-(4,4,4-trifluorobutyl)-[1,2,4]triazolo[1,5-a]pyrazin-6-yl)-5H-pyrrolo[2,3-d]pyrimidin-6(7H)-one], the EC50 amounted to 20 nM.

On to `C[C@@]1(c2ccc(F)cc2)C(=O)Nc2nc(-c3cn4ncnc4c(CCCC(F)(F)F)n3)nc(O)c21` [Example 135A], for which the EC50 amounted to 183 nM.

Consider `Cc1ccc(C2(C3CC3)C(=O)Nc3nc(-c4cn5ncnc5c(CCCC(F)(F)F)n4)nc(N)c32)nc1` (racemic) [Example 47B, 4-amino-5-cyclopropyl-5-(5-methylpyridin-2-yl)-2-(8-(4,4,4-trifluorobutyl)-[1,2,4]triazolo[1,5-a]pyrazin-6-yl)-5H-pyrrolo[2,3-d]pyrimidin-6(7H)-one], for which the EC50 was 144 nM.

As to `CCCc1nc(-c2nc(N)c3c(n2)NC(=O)C3(c2ccc(F)c(F)c2)C2CC2)cn2ncnc12` (centres unmarked) [Example 58A, 4-amino-5-cyclopropyl-5-(3,4-difluorophenyl)-2-(8-propyl-[1,2,4]triazolo[1,5-a]pyrazin-6-yl)-5H-pyrrolo[2,3-d]pyrimidin-6(7H)-one], the EC50 worked out at 242 nM.

Consider `CCCCc1nc(-c2nc(N)c3c(n2)NC(=O)C3(c2ccc(F)cn2)C2CC2)cn2ncnc12` (centres unmarked) [Example 66A, 4-amino-2-(8-butyl-[1,2,4]triazolo[1,5-a]pyrazin-6-yl)-5-cyclopropyl-5-(5-fluoropyridin-2-yl)-5H-pyrrolo[2,3-d]pyrimidin-6(7H)-one], for which the EC50 is 34.2 nM.

Turning to `Nc1nc(-c2cn3ncnc3c(CCCC(F)(F)F)n2)nc2c1C(c1ccc(C(F)(F)F)cn1)(C1CC1)C(=O)N2` (single isomer, unassigned) [Example 2A, 4-Amino-5-cyclopropyl-2-(8-(4,4,4-trifluorobutyl)-[1,2,4]triazolo[1,5-a]pyrazin-6-yl)-5-(5-(trifluoromethyl)pyridin-2-yl)-5H-pyrrolo[2,3-d]pyrimidin-6(7H)-one], the EC50 came to 128 nM.

Turning to `CC1(c2ccc(F)cn2)C(=O)Nc2nc(-c3cn4ncnc4c(CCCC(F)(F)F)n3)nc(O)c21` (centres unmarked) [Example 136B, 5-(5-fluoropyridin-2-yl)-4-hydroxy-5-methyl-2-(8-(4,4,4-trifluorobutyl)-[1,2,4]triazolo[1,5-a]pyrazin-6-yl)-5H-pyrrolo[2,3-d]pyrimidin-6(7H)-one], the EC50 came to 514 nM.

In the case of `CCCCc1nc(-c2nc(N)c3c(n2)NC(=O)C3(C)c2ccc(Cl)cn2)cn2ncnc12` (centres unmarked) [Example 69A, 4-amino-2-(8-butyl-[1,2,4]triazolo[1,5-a]pyrazin-6-yl)-5-(5-chloropyridin-2-yl)-5-methyl-5H-pyrrolo[2,3-d]pyrimidin-6(7H)-one], the EC50 came to 13.7 nM.

In the case of `CC(C)n1cc(C2(C)C(=O)Nc3nc(-c4cn5ncnc5c(CCC(F)(F)C(F)(F)F)n4)nc(N)c32)nn1` (centres unmarked) [Example 20A, 4-amino-5-(1-isopropyl-1H-1,2,3-triazol-4-yl)-5-methyl-2-(8-(3,3,4,4,4-pentafluorobutyl)-[1,2,4]triazolo[1,5-a]pyrazin-6-yl)-5H-pyrrolo[2,3-d]pyrimidin-6(7H)-one], the EC50 came out at 176 nM.

`Cc1ccc(C2(C)C(=O)Nc3nc(-c4cn5ncnc5c(CCC(F)(F)C(F)(F)F)n4)nc(O)c32)nc1` (centres unmarked) [Example 130B, 4-hydroxy-5-methyl-5-(5-methylpyridin-2-yl)-2-(8-(3,3,3,4,4,4-pentafluorobutyl)-[1,2,4]triazolo[1,5-a]pyrazin-6-yl)-5H-pyrrolo[2,3-d]pyrimidin-6(7H)-one]: the EC50 was determined as 503 nM.
